{
  "source": "patent US20090054376A1",
  "about": "“BENZOFURAN DERIVATIVES WITH THERAPEUTIC ACTIVITIES” (Pharmos Corporation, priority 2005, published 2009)",
  "key": {"[1]": {"tested_on": "mechanical allodyna after chronic constriction of the sciatic nerve", "assay": "Neuropathic pain, chronic constriction of the sciatic nerve (CCI)", "assay_type": "in vivo, Male Sprague Dawley rats", "settings": "four and a half hour after administration", "procedure": "The analgesic activity of compounds of the invention was assessed in a chronic constriction induced (CCI) model of neuropathic pain. […] The development of mechanical allodyna was monitored using a Dynamic Plantar Sesthesiomether as described in Example 18. This apparatus is an automated version of the classical von Frey filaments' test.\nPre-surgery baseline values were ascertained as the mean of 2 pre-surgery values. Once the baseline values are established, the animals were surgically prepared by constricting the right sciatic nerve with 4-0 chromic cat gut loose ligatures. On day 11 post-operation, the animals that have developed mechanical allodyna were arbitrarily allocated to the various treatment groups based on the pre-surgery values.\nThe design was randomized, performed in a masked fashion as to whether drug or vehicle is being given. Male Sprague Dawley rats (average body weight 240 g, Harlan, Israel), were allowed to acclimatize to the behavioral testing equipment prior to testing. On the testing day, the animals, at least six per treatment group, were administered the compounds and controls at a volume dosage of 5 ml/kg. Fifteen minutes later, the mechanical stimulus was applied and the force, measured in grams, causing a withdrawal response for each of the ipsilateral and contralateral hind paws was evaluated.\nResults are expressed as mean±SEM for each treatment group and the differences among those groups are analyzed by analysis of variance (ANOVA) followed by post-hoc Tukey's test. A value of p<0.05 is considered to be statistically significant. Thereafter the difference in the force to be applied to the injured paw as compared to the normal paw was calculated. Δforce, expressed in grams, was measured at baseline and 1 and 4.5 hours after treatment."}, "[2]": {"tested_on": "CFA induced rheumatoid arthritis", "assay": "CFA induced rheumatoid arthritis", "assay_type": "in vivo, Female Lewis rats", "procedure": "Female Lewis rats (125 g average body weight, Harlan, Israel), at least eight per treatment group were used in this study. CFA was prepared by combining 100 mg of Mycobacterium Tuberculosis (Difco) with 5 ml of incomplete Freund's adjuvant and grinding for about 3 minutes the resulting mixture until a brownish suspension was obtained. The CFA suspension was administered s.c. at the base of the tail, 0.2 ml/animal. Three tests were performed to evaluate the pain and inflammation caused by the disease. These tests were performed before CFA injection to establish baseline values and 14, 21 and 28 days after disease induction. Compounds of the invention were administered daily for fourteen days p.o. at a dose of 10 mg/kg starting on day 14, after disease onset. A group of animals treated with vehicle only at 5 ml/kg served as control.\nThe parameters monitored were as detailed in Example 18 and include paw edema and redness, and response to thermal and mechanical pain stimuli. At the end of the treatment period the animals were euthanized. The paws were cut and stored in a solution of 4% formalin until histopathological evaluation.\nThe differences among various treatment groups between the severity of the clinical signs, as expressed by paw swelling and redness, as well as the differences in pain responses, as expressed by Latency Time (sec) and Force (g) needed to observe withdrawal of the paw following thermal and mechanical stimuli, and finally the tissue damage, as expressed by the histological scores, were compared using analysis of variance ANOVA followed by post-hoc t-Test. A value of p<0.05 is considered to be statistically significant."}},
  "data": [
    {"compound": "CCCCCCC(C)(C)c1cc(O)c2c(c1)OC1C(O)CCCCC21", "note": "(stereo not drawn) [Compound C7S-2, 2-(1,1-dimethylheptyl)-5,6,7,8,9,9a-hexahydro-4bH-10-oxa-benzo[α]azulen-4,9-diol]", "values": [
      {"measurement": "inhibition of the pain behavior (expressed in Δforce) as compared to baseline", "setting": "[1]; 0.005 mg/kg i.v.", "value": 58, "unit": "%"},
      {"measurement": "inhibition of the pain behavior (expressed in Δforce) as compared to baseline", "setting": "[1]; 0.01 mg/kg i.v.", "value": 67, "unit": "%"},
      {"measurement": "inhibition of the pain behavior (expressed in Δforce) as compared to baseline", "setting": "[1]; 0.025 mg/kg i.v.", "value": 84, "unit": "%"},
      {"measurement": "inhibition of the pain behavior (expressed in Δforce) as compared to baseline", "setting": "[1]; 0.5 mg/kg i.v.", "value": 92, "unit": "%"},
      {"measurement": "decrease in clinical score as compared to first day of treatment", "setting": "[2]; after two weeks of treatment, 10 mg/kg p.o.", "value": 44, "unit": "%"},
      {"measurement": "average clinical score regarding the edema", "setting": "[2]; after two weeks of treatment, 10 mg/kg p.o. daily, vehicle 6.67±1.85", "value": "3.29±0.97"},
      {"measurement": "average clinical score regarding the edema", "setting": "[2]; day 14, at initiation of treatment, 10 mg/kg p.o. group, vehicle 6.00±1.18", "value": "5.86±1.70"},
      {"measurement": "difference in average clinical score in favor of treated animals", "setting": "[2]; day 21, after a week of treatment, 10 mg/kg p.o. daily, vs vehicle", "value": 1.89, "unit": "unit"},
      {"measurement": "Force increase over baseline", "setting": "[2]; day 28, 10 mg/kg p.o.", "value": "about 63%"},
      {"measurement": "Latency increase over baseline values of day 14", "setting": "[2]; day 28, 10 mg/kg p.o.", "value": "more than 32%"},
      {"measurement": "Latency prolonged following thermal stimulus", "setting": "[2]; day 28 vs day 14, 10 mg/kg p.o.", "value": "about 5 seconds"},
      {"measurement": "increase of Force needed to elicit a withdrawal response", "setting": "[2]; day 28 vs day 14, 10 mg/kg p.o., mechanical stimulus", "value": 11.1, "unit": "grams"}
    ]}
  ]
}
